Assays:
OsdR (SCO0204) = biological target: T1, OsdR (SCO0204) (Streptomyces coelicolor, UniProt Q9RI42); assay: in vitro phosphorylation by AcP, read out by EMSA (DNA binding versus nonphosphorylated OsdR); assay type: biochemical; conditions: phosphor donor; covalent phosphorylation; indirect read-out
T1 construct: His6-tagged, from plasmid pET0204 in E. coli BL21(DE3), Ni-NTA purified
T1 sequence (Q9RI42 1-233): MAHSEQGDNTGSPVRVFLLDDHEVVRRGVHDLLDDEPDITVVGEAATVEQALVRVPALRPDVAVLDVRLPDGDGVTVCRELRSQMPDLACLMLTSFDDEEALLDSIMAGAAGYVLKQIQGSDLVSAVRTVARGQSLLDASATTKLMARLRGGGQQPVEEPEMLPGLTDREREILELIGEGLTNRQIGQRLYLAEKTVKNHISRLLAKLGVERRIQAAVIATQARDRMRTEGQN

[1] = biological target: T2, OsdR~P (phosphorylated with acetyl phosphate) (Streptomyces coelicolor) (UniProt Q9RI42); assay: EMSA; conditions: AcP-phosphorylated; EMSA with 32P-labeled probes, 20 fmol DNA (50-mers), uM OsdR; AcP phosphorylation; buffer, pH, temperature not given (cited method)
T2 sequence: T1 sequence (Q9RI42 1-233)

Row | Compound | in vitro phosphorylation by AcP, read out by EMSA (DNA binding versus nonphospho) (OsdR (SCO0204)) | binding signal (fold lower affinity than other targets) [1]
1 | CC(=O)OP(=O)(O)O [acetyl phosphate] | OsdR~P was obtained after AcP phosphorylation in vitro | 
2 | SCO2637 promoter |  | 2

From publication PMC5069765, “OsdR of Streptomyces coelicolor and the Dormancy Regulator DevR of Mycobacterium tuberculosis Control Overlapping Regulons” (mSystems, 2016)
